Reference: paper PMC4839156, “A bioavailable cathepsin S nitrile inhibitor abrogates tumor development” (Molecular Cancer, 2016)

Legend:
Assay type in all cases: biochemical
cathepsin K = biological target: T1, cathepsin K (Homo sapiens, UniProt P43235); assay: recombinant enzyme, fluorogenic substrate Cbz-FR-AMC, Morrison plot Ki
T1 construct: gene CTSK
T1 sequence (P43235 115-329): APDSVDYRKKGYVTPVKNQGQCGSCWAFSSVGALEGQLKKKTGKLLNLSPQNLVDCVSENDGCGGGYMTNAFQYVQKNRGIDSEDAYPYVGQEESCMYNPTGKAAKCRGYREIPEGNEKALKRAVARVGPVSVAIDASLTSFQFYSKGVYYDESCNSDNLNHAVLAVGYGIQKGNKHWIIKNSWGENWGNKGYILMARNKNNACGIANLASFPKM

cathepsin V = biological target: T2, cathepsin V (Homo sapiens, UniProt O60911); assay: as above
T2 construct: gene CTSV

cathepsin L = biological target: T3, cathepsin L (Homo sapiens, UniProt P07711); assay: recombinant enzyme, fluorogenic substrate Cbz-FR-AMC, Morrison plot Ki (limited activity)
T3 construct: gene CTSL

cathepsin S = biological target: T4, cathepsin S (Homo sapiens, UniProt P25774); assay: recombinant enzyme, fluorogenic substrate Cbz-VVR-AMC, Morrison plot Ki
T4 construct: gene CTSS

cathepsin B = biological target: T5, cathepsin B (Homo sapiens, UniProt P07858); assay: recombinant enzyme, fluorogenic substrate Cbz-RR-AMC, Morrison plot Ki
T5 construct: gene CTSB

T4 sequence (P25774 115-331): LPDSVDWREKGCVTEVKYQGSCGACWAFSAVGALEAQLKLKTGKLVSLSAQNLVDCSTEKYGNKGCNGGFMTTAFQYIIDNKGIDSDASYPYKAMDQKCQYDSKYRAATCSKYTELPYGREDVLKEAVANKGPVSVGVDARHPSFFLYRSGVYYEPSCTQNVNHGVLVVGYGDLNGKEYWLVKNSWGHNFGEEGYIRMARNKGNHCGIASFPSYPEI
T3 sequence (P07711 114-288): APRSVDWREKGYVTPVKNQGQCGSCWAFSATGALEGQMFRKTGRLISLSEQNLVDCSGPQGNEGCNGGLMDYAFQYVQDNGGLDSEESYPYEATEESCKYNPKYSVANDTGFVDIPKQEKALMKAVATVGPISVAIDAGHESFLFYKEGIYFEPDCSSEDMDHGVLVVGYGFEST
T3 sequence (P07711 292-333): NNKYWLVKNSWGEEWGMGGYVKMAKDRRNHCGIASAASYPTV
T2 sequence (O60911 114-334): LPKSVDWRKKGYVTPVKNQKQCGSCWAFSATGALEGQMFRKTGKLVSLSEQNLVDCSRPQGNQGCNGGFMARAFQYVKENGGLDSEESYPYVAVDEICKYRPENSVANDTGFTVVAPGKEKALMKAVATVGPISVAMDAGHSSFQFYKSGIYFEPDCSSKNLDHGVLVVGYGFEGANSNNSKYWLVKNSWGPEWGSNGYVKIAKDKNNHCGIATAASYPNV

`CS(=O)(=O)C[C@H](N[C@@H](c1ccc(F)cc1)C(F)(F)F)C(=O)NC1(C#N)CC1` [compound 6] was tested. Which Ki (cathepsin K) did it give?
Its Ki is 155 nM.

And the Ki (cathepsin V)?
Its Ki is 784 nM.

And the Ki (cathepsin L)?
Its Ki is 7870 nM.

And the Ki (cathepsin S)?
Its Ki is 2.71 nM.

What about the Ki (cathepsin B) of the same molecule?
The Ki was 1940 nM.
